Assay results published in patent US10799552B2, “Methods for treating diabetic neurotherapy” (Massachusetts Eye and Ear Infirmary, priority 2011, dated 2020).
Peptide text beside a SMILES is read from it. * marks the point of attachment. Cbz = O=C(OCc1ccccc1)*; CH2F = FC*

Test system: optic nerve axons of retinal ganglion cells
Assay: Axon regeneration after optic nerve crush injury (βIII-tubulin staining of optic nerve sections)
Type: in vivo, mouse
Details: intravitreal, ZVAD 300 μM and/or Nec-1 4 mM; 14 days after optic nerve injury; FIGS. 3B-3E
Experimental: Intravitreal injections were performed as follows. Briefly, the tip of a 33 gauge needle (Hamilton, Reno, Nev.) was carefully inserted through the sclera into the intravitreal space to reduce intraocular pressure. Then, the needle was extracted, loaded with compounds and tangentially reinserted through the sclera into the intravitreal space, inducing a self-sealing wound tunnel. After injection, the absence of choroidal bleeding was confirmed. At specified times after injury, mice were sacrificed with an overdose of sodium pentobarbital, and eyes were enucleated.
To investigate the efficacy of necrosis inhibitor and pan-caspase inhibitor in promoting axon regeneration, eight-weeks-old mice were subjected to optic nerve crush surgery as previously described. […]
Axon regeneration was assessed by obtaining longitudinal sections of the optic nerve and counting the number of axons at pre-specified distances from the injury site. […] Axons were counted manually in at least eight longitudinal sections per case at pre-specified distances from the injury site. The number of regenerating axons at various di stances are determined as described previously (Leon et al., (2000) J NEUROSCI 20: 4615-4626). […]

In the case of `COC(=O)CC(NC(=O)C(C)NC(=O)C(NC(=O)OCc1ccccc1)C(C)C)C(=O)CF` (stereo not drawn) [ZVAD, Benzyloxycarbonyl-Val-Ala-Asp(OMe)-fluoromethylketone] (Cbz-Val-Ala-Asp(OMe)-CH2F; configuration not given here), the “axon regeneration (axon staining beyond injury site)” value was “minimal effects on axon regeneration”.

In the case of `CN1C(=O)NC(Cc2c[nH]c3c(Cl)cccc23)C1=O` (centres unmarked) [Nec-1], the “axon regeneration (axon staining beyond injury site)” value was “minimal effects on axon regeneration”.
